Source: article PMC4139061, “Structural basis of nucleoside and nucleoside drug selectivity by concentrative nucleoside transporters” (eLife, 2014)

Target: T1, hCNT1 (Homo sapiens, UniProt O00337)
T1 sequence (O00337 1-649): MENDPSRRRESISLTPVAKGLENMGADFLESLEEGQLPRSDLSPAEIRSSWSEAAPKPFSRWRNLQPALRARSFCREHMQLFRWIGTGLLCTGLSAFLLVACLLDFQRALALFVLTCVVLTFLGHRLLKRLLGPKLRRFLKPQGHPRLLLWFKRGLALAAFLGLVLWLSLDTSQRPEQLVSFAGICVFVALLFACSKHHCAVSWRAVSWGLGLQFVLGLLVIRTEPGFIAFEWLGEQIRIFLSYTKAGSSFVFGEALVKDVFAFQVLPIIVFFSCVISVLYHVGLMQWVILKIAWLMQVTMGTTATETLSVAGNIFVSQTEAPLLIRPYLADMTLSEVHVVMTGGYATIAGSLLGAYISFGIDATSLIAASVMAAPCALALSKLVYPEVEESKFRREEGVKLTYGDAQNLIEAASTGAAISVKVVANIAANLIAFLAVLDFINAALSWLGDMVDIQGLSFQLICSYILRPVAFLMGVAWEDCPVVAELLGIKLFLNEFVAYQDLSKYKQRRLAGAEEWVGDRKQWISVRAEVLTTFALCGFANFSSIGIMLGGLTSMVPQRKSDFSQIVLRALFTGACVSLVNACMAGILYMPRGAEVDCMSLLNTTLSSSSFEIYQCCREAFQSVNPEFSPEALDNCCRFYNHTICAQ
Experiment: two-electrode voltage-clamp of Na+ currents / total charge in Xenopus oocytes expressing hCNT1
Type: cell-based
Source text: To detect nucleoside transport by hCNTs, we turned to two-electrode voltage-clamp electrophysiological recording. Because hCNTs are Na^+-nucleoside symporters, one can measure the current generated by the Na^+ transport that is coupled with nucleoside transport. We injected Xenopus oocytes with mRNA coding for each of the hCNTs and measured inward Na^+ currents elicited by the addition of different nucleosides to the extracellular side.
The genes coding for the three hCNTs and vcCNT were cloned into a pGEM-HE vector. Plasmids were linearized using either SphI or NheI, and mRNA was transcribed using the mMESSAGE mMACHINE T7 Transcription Kit (Ambion, Grand Island, NY). Defolliculated Xenopus laevis oocytes were purchased from Ecocyte Bioscience (Austin, TX). Individual oocytes were injected with 40 ng of mRNA using a 10-μl microdispenser (Drummond Scientific, Broomall, PA) fitted with a tapered glass pipette tip and incubated at 17 °C for 4–5 days in ND96 buffer (96 mM NaCl, 2 mM KCl, 1 mM MgCl2, 1.8 mM CaCl2, and 5 mM HEPES pH 7.5) with 0.1% penicillin and streptomycin before recording.
The oocyte-recording chamber was gravity-perfused with ND96 buffer at a rate of 2 ml/min. Membrane currents were measured using an Oocyte Clamp (OC-725C; Warner Instruments, Hamden, CT). Individual oocytes were penetrated with two microelectrodes filled with 3 M KCl (0.5–1.0 MΩ). All electrophysiological experiments were conducted at room temperature. The OC-725C Oocyte Clamp was computer-interfaced via an Axon Digidata 1550 and controlled by Axoscope software (Molecular Devices, Sunnyvale, CA). The current signals were filtered at 20 Hz and sampled at intervals of 20 ms. The signals were filtered at 0.5 Hz by use of pCLAMP 10.4 software for data presentation. […] Cells were discarded if resting membrane potentials were unstable or more positive than −30 mV. Oocyte membrane potentials were clamped at −90 mV for holding potentials to measure transporter-generated currents. All data are shown as means ± SEM.

SMILES: Cc1cc2cn([C@@H]3O[C@H](CO)[C@@H](O)C3(F)F)c(=O)nc2[nH]1 [pyrrolo-gemcitabine]
- Total charge transported, Mean (200 μM nucleoside, hCNT1-expressing Xenopus oocytes, mean of Exp. 1-11): 0.823 μC
- total charge uptake higher than gemcitabine (fold, hCNT1 oocytes, 200 μM): sevenfold
- Qpyr-gem/Qgem, Mean (ratio of total charge, 200 μM each, hCNT1, mean of Exp. 1-11): 6.829
